Literature values, collected in patent US8440213B2, “Pesticides formulations” (priority 2003, dated 2013).
≈ marks a conversion by molar mass, not a printed value.

Settings: in water, at 20° C.

Compound | Solubility [µg/mL]
CCOP(=S)(OCC)Oc1nc(Cl)c(Cl)cc1Cl [Chlorpyriphos] | 1.4 (≈ 3.99 µM)
CCOc1ccc(C(C)(C)COCc2cccc(Oc3ccccc3)c2)cc1 [Etofenprox, 2-(4-ethoxyphenyl)-2-methylpropyl 3-phenoxybenzyl ether] | <0.001
COc1nn(CSP(=S)(OC)OC)c(=O)s1 [Methidathion] | 200 (≈ 662 µM)
CCCN(CCC)c1c([N+](=O)[O-])cc(C(F)(F)F)cc1[N+](=O)[O-] [Trifluralin, α,α,α,-trifluoro-2,6-dinitro-N,N-dipropyl-p-toluidine] | 0.4 (≈ 1.19 µM)
